Experimental data reported in US10183944B2 (Asana Biosciences, LLC, priority 2011, dated 2019).
Counter-ions that a name gives are not always drawn. Like-named read-outs stand apart in the source and are kept apart here.

Tests used:
[1] = system: RBL2H3 cells; test: Degranulation assay: β-hexosaminidase release during immune complex mediated degranulation; assay type: cell-based, rat; details: Assay Protocol B (96 well format); for inhibition at 1 µM: read-out: Degranulation % inhibition at 1 μM; for EC50: read-out: Degranulation EC50
Protocol: The objective of this assay was to examine by Fluorescence method the effect of compounds on β-hexosaminidase release during immune complex mediated degranulation in RBL2H3 cells. Compounds were tested for their ability to inhibit the ability of this immune complex to mediate β-hexosaminidase release, in an enzyme assay with […] as substrate. […] Emission 460 nm). [table] [table] RBL2H3 cells were maintained in MEM complete media containing 10% FBS at 70%-80% confluence in a mammalian cell culture CO2 incubator with 5% CO2 at 37° C. 2×10^5 cells/well were plated in 1 mL of complete media and incubated for 5 hours for cell attachment. Complete media was replaced with 1 mL of serum free MEM media containing 1.2 μg/mL of anti-DNP rat IgE as sensitizing agent and further incubated overnight with 5% CO2 at 37° C. […] Cells were further stimulated with 5 μg/mL of DNP-BSA for 60 minutes. Plates were centrifuged for 5 minutes at 1000 rpm and 25 μL of culture supernatant was transferred from each assay well into a 96 well black coated plate. 25 μL β-NAG substrate was added to this mixture and incubated at room temperature for 30 minutes. The reaction was terminated with 100 μL of stop solution and fluorescence was monitored. (Excitation 355 nm; Emission 460 nm) See, Sanderson, (2010), Cellular Immunology, 262(1): 28-34 and Silverman, (2006) MCB, 26(5):1826-1838, which are incorporated herein by reference. The % release of β-Hexosaminidase for the test compound was calculated using the following formula: RBL2H3 cells were maintained in MEM complete media containing 10% FBS at 70-80% confluence in a mammalian cell culture CO2 incubator with 5% CO2 at 37° C. 5×10^4 cells/well were plated in 200 μL of complete media containing 0.3 μg/mL of anti-DNP rat IgE as sensitizing agent for 24 hours at 37° C. & 5% CO2. The following day, cells were washed twice with PIPES buffer for 10 minutes at 37° C. and replenished with serum free MEM media. Cells were treated with various concentrations of test compounds (in 0.5% DMSO) for 15 minutes at 37° C. and 5% CO2. The cells were further stimulated with 0.1 μg/mL of DNP-BSA for 45 minutes. The plates were spun for 5 minutes at 2000 rpm and 25 μL of culture supernatant was then transferred from each assay well into a 96 well black coated plate. […] β-NAG substrate was added and incubated at RT for 30 minutes. After incubation with substrate, 150 μL of stop solution was added and fluorescence was monitored. (Excitation 355 nm; Emission 460 nm). See, Yamamoto, JPET, 306(3):1174-1181 (2003) and Taylor, MCB, 15(8): 4149-4157 (1995), which are herein incorporated by reference. Release of β-hexosaminidase during the degranulation process by immune complex mediated FcεRI stimulation is through the SYK pathway. The % inhibition of β-hexosaminidase release by Syk inhibitor gives information with regard to its Syk inhibition potency.

[2] = molecular target: Syk (356-635 amino acids) catalytic domain (Homo sapiens (Human), UniProt P43405); test: Inhibition of enzymatic Syk kinase activity (radiometric); assay type: biochemical; details: read-out: IC50 Syk
Procedure, shortened: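 Radiometric filter-binding format: 32P transfer from γ-32P-ATP onto pG4T, scintillation-counted after acid washes of P81 paper. Syk kinase domain (356-635), 0.035–7.5 ng per reaction, was exposed to compound for 30 minutes at room temperature before a 10-minute, 30° C. reaction with ATP (100 μM stock). Inhibition derived from counts with versus without compound.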

[3] = molecular target: JAK2 (Homo sapiens (Human), UniProt O60674); test: Inhibition of enzymatic JAK2 kinase activity (TR-FRET); assay type: biochemical; details: read-out: IC50 JAK
Sequence of JAK2 (O60674 808-1132): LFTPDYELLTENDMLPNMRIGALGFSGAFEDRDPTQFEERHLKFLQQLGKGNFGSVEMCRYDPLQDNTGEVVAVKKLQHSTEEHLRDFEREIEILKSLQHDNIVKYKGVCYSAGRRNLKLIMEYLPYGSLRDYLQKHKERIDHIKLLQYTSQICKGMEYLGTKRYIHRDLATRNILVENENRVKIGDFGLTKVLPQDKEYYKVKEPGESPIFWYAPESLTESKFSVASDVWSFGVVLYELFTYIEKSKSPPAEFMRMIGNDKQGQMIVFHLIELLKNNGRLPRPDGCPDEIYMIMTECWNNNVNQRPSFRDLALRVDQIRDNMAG
Procedure, shortened: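 TR-FRET read-out (Eu antibody donor, Ulight poly Glu-Tyr acceptor, 665/615 nm ratio) after a 60 min RT kinase reaction with ATP, begun following 30 min compound–enzyme preincubation. Stopped by EDTA; inhibition expressed as 100 minus % activity of positive control.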

[4] = Rattus norvegicus, RBL-2H3, 1 μM

Compound	inhibition at 1 µM [1, 4]	EC50 ([1]; Rattus norvegicus, RBL-2H3)	IC50 [2]	IC50 [3]	Degranulation % inhibition at 1 μM ([1]; 1 μM)	EC50 [1]
N#CCC1CCN(c2ccc(Nc3nc(N4CCC(CC#N)CC4)nc4cn[nH]c(=O)c34)cn2)CC1 [Example 103, 2-(1-(5-((2-(4-(cyanomethyl)piperidin-1-yl)-5-oxo-5,6-dihydropyrimido[4,5-d]pyridazin-4-yl)amino)pyridin-2-yl)piperidin-4-yl)acetonitrile]	87%	32 nM	–	–	–	–
CC1CC(C)CN(c2nc(Nc3ccc(N4CCC(CC(=O)O)CC4)cc3)c3c(=O)[nH]ncc3n2)C1 (centres unmarked) [Example 117, 2-(1-(4-((2-(3,5-dimethylpiperidin-1-yl)-5-oxo-5,6-dihydropyrimido[4,5-d]pyridazin-4-yl)amino)phenyl)piperidin-4-yl)acetic acid]	89%	95 nM	–	–	–	–
COCCN1CCN(c2ccc(Nc3nc(N4CCC(CC#N)CC4)nc4cn[nH]c(=O)c34)cc2)CC1 [Example 256, 2-(1-(4-((4-(4-(2-methoxyethyl)piperazin-1-yl)phenyl)amino)-5-oxo-5,6-dihydropyrimido[4,5-d]pyridazin-2-yl)piperidin-4-yl)acetonitrile]	73%	33 nM	< 10 nM	< 50 nM	–	–
CC1CCN(c2nc(Nc3ccc(N4CCC5(CC4)CC5C(=O)O)cc3)c3c(=O)[nH]ncc3n2)CC1 (centres unmarked) [Example 155, 6-(4-((2-(4-methylpiperidin-1-yl)-5-oxo-5,6-dihydropyrimido[4,5-d]pyridazin-4-yl)amino)phenyl)-6-azaspiro[2.5]octane-1-carboxylic acid]	–	27 nM	< 50 nM	< 50 nM	–	–
CCN1CCN(CCc2ccc(Nc3nc(N4CCCCCC4)nc4cn[nH]c(=O)c34)cc2)CC1 [Example 209, 2-(azepan-1-yl)-4-((4-(2-(4-ethylpiperazin-1-yl)ethyl)phenyl)amino) pyrimido[4,5-d]pyridazin-5(6H)-one]	81%	29 nM	< 10 nM	–	–	–
N#CCC1CCN(c2nc(Nc3ccc(CCCN4CCNCC4)cc3)c3c(=O)[nH]ncc3n2)CC1 [Example 174, 2-(1-(5-oxo-4-((4-(3-(piperazin-1-yl)propyl)phenyl)amino)-5,6-dihydropyrimido[4,5-d]pyridazin-2-yl)piperidin-4-yl)acetonitrile]	99%	15 nM	–	–	–	–
N#CCC1CCN(c2nc(Nc3ccc(OCCC4CCNCC4)cc3)c3c(=O)[nH]ncc3n2)CC1 [Example 169, 2-(1-(5-oxo-4-((4-(2-(piperidin-4-yl)ethoxy)phenyl)amino)-5,6-dihydropyrimido[4,5-d]pyridazin-2-yl)piperidin-4-yl)acetonitrile]	17%	230 nM	< 50 nM	–	–	–
O=c1[nH]ncc2nc(N3CCCCCC3)nc(Nc3ccc(OCCN4CCNCC4)cc3)c12 [Example 89, 2-(azepan-1-yl)-4-((4-(2-(piperazin-1-yl)ethoxy)phenyl)amino)pyrimido[4,5-d]pyridazin-5(6H)-one hydrochloride]	100%	–	–	–	–	–
O=C(O)CN1CCN(c2ccc(Nc3nc(N4CCCCCC4)nc4cn[nH]c(=O)c34)cc2)CC1 [Example 125, 2-(4-(4-((2-(azepan-1-yl)-5-oxo-5,6-dihydropyrimido[4,5-d]pyridazin-4-yl)amino)phenyl)piperazin-1-yl)acetic acid]	38%	238 nM	–	–	–	–
O=C(c1ccc(Nc2nc(N3CCCCCC3)nc3cn[nH]c(=O)c23)cc1)N1CCOCC1 [Example 68, 2-(azepan-1-yl)-4-((4-(morpholine-4-carbonyl)phenyl)amino)pyrimido[4,5-d]pyridazin-5(6H)-one]	100%	1.2 nM	< 100 nM	–	–	–
O=C(O)C1CC12CCN(c1ccc(Nc3nc(-c4ccc(F)cc4)nc4cn[nH]c(=O)c34)cc1)CC2 (centres unmarked) [Example 133, 6-(4-((2-(4-fluorophenyl)-5-oxo-5,6-dihydropyrimido[4,5-d]pyridazin-4-yl)amino)phenyl)-6-azaspiro[2.5]octane-1-carboxylic acid]	98%	25 nM	–	–	–	–
CCN1CCN(CCOc2ccc(Nc3nc(N4CCCCCC4)nc4cn[nH]c(=O)c34)cc2)CC1 [Example 151, 2-(azepan-1-yl)-4-((4-(2-(4-ethylpiperazin-1-yl)ethoxy)phenyl)amino) pyrimido[4,5-d]pyridazin-5(6H)-one]	–	24 nM	–	–	–	–
O=c1[nH]ncc2nc(N3CCCCCC3)nc(Nc3ccc(N4CCN(CCO)CC4)cc3)c12 [Example 190, 2-(azepan-1-yl)-4-((4-(4-(2-hydroxyethyl)piperazin-1-yl)phenyl)amino)pyrimido[4,5-d]pyridiazin-5(6H)-one]	–	–	–	–	83%	21 nM
N#CCC1CCN(c2nc(Nc3ccc(N4CCC(F)CC4)cc3)c3c(=O)[nH]ncc3n2)CC1 [Example 290, 2-(1-(4-((4-(4-fluoropiperidin-1-yl)phenyl)amino)-5-oxo-5,6-dihydropyrimido[4,5-d]pyridazin-2-yl)piperidin-4-yl)acetonitrile]	100%	20 nM	–	–	–	–
CN(c1nc(Nc2ccc(N3CCC4(CC3)CC4C(=O)O)cc2)c2c(=O)[nH]ncc2n1)C1CCCCC1 (centres unmarked) [Example 170, 6-(4-((2-(cyclohexyl(methyl)amino)-5-oxo-5,6-dihydropyrimido[4,5-d]pyridazin-4-yl)amino)phenyl)-6-azaspiro[2.5]octane-1-carboxylic acid]	39%	107 nM	–	–	–	–
CCN1CCN(C(=O)COc2ccc(Nc3nc(N4CCC(CC#N)CC4)nc4cn[nH]c(=O)c34)cc2)CC1 [Example 270, 2-(1-(4-((4-(2-(4-ethylpiperazin-1-yl)-2-oxoethoxy)phenyl)amino)-5-oxo-5,6-dihydropyrimido[4,5-d]pyridazin-2-yl)piperidin-4-yl)acetonitrile]	–	–	< 50 nM	< 50 nM	–	–
O=C(O)CC1CCN(c2ccc(Nc3nc(N4CCCCCC4)nc4cn[nH]c(=O)c34)cc2)CC1 [Example 69, 2-(1-(4-((2-(azepan-1-yl)-5-oxo-5,6-dihydropyrimido[4,5-d]pyridazin-4-yl)amino)phenyl)piperidin-4-yl)acetic acid]	100%	31 nM	< 10 nM	–	–	–
N#CCC1CCN(c2nc(Nc3ccc(N4CCC5(CC4)CC5C(=O)O)cc3)c3c(=O)[nH]ncc3n2)CC1 (centres unmarked) [Example 66, 6-(4-((2-(4-(cyanomethyl)piperidin-1-yl)-5-oxo-5,6-dihydropyrimido[4,5-d]pyridazin-4-yl)amino)phenyl)-6-azaspiro[2.5]octane-1-carboxylic acid]	75%	352 nM	< 50 nM	–	–	–
CCN1CCN(C(=O)COc2ccc(Nc3nc(N4CCCCCC4)nc4cn[nH]c(=O)c34)cc2)CC1 [Example 269, 2-(azepan-1-yl)-4-((4-(2-(4-ethylpiperazin-1-yl)-2-oxoethoxy)phenyl)amino)pyrimido[4,5-d]pyridazin-5(6H)-one]	–	–	< 50 nM	< 50 nM	–	–
O=c1[nH]ncc2nc(-c3ccccc3)nc(Nc3ccc(OCCN4CCNCC4)cc3)c12 [Example 152, 2-phenyl-4-((4-(2-(piperazin-1-yl)ethoxy)phenyl)amino)pyrimido[4,5-d]pyridazin-5(6H)-one]	–	–	< 50 nM	> 100 nM	–	–
O=c1[nH]ncc2nc(N3CCCCCC3)nc(Nc3ccc(OCCN4CCCNCC4)cc3)c12 [Example 164, 4-((4-(2-(1,4-diazepan-1-yl)ethoxy)phenyl)amino)-2-(azepan-1-yl)pyrimido[4,5-d]pyridazin-5(6H)-one]	–	55 nM	–	–	–	–
